One assay deals with T1, hClpP (Homo sapiens, UniProt Q16740).
T1 construct: made in house
Put plainly: activating ClpP hydrolysis of FITC-casein (fluorescence kinetic detection). Particulars: hClpP 1 μM, FITC-Casein 4 μM, 37° C. The format is biochemical. Summed up: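 hClpP at 1 μM final preincubated with compounds (assay-buffer dilutions 200 μM–2 nM, before mixing) 30 min at 37 °C, then 4 μM final FITC-casein added. Fluorescence read kinetically at 37 °C every 1 min for 15 min, duplicate wells.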

The test system of a further assay is MV4; 11 cells. Briefly: inhibiting the growth of MV4; 11 cells. Type of assay: cell-based.

The structures appear in SMILES notation. Like-named read-outs stand apart in the source and are kept apart here.

T1 sequence (Q16740 57-277): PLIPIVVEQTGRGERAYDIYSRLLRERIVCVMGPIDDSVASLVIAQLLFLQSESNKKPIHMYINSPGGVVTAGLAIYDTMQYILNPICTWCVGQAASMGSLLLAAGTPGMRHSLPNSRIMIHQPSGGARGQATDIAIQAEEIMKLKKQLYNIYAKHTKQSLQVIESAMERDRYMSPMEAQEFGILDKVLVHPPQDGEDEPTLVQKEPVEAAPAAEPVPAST

A word on the EC50: it is the midpoint of the concentration-response curve. A higher EC50 goes with a need for much substance. One may read the IC50 as the point on the concentration scale where inhibition reaches its midpoint. On hClpP, `CCc1ccccc1CN1CCc2c(c(=O)n(Cc3ccccc3)c3ncccc23)C1` [Compound I-10, 6-benzyl-3-(2-ethylbenzyl)-2,3,4,6-tetrahydropyrido[3,4-c][1,8]naphthyridine-5-(1H)-one] yielded an EC50 of 1000 to 10000 nM. This compound registered an IC50 in the assay on MV4; 11 cells (Homo sapiens) below 1000 nM.

Take `Cc1cccc(Cn2c(=O)c3c(c4cccnc42)CCN(Cc2ccccc2)C3)c1` [Compound I-49, 3-benzyl-6-(3-methylbenzyl)-2,3,4,6-tetrahydropyrido[3,4-c][1,8]naphthyridine-5-(1H)-one]: the EC50 at hClpP was below 1000 nM. This compound registered an IC50 in the assay with MV4; 11 cells (Homo sapiens) below 1000 nM.

In turn, `Cn1cncc1Cn1c(=O)c2c(c3cccnc31)CCN(Cc1ccccc1)C2` [Compound I-67, 3-benzyl-6-((1-methyl-1H-imidazol-5-yl)methyl)-2,3,4,6-tetrahydropyrido[3,4-c][1,8]naphthyridine-5-(1H)-one] had an EC50 at hClpP of 10000 to 100000 nM. This compound returned an IC50 in the assay with MV4; 11 cells (Homo sapiens) of 1000 to 10000 nM.

`COc1cccc(CN2CCc3c(c(=O)n(Cc4ccccc4)c4ncccc34)C2)c1` [Compound I-17, 6-benzyl-3-(3-methoxybenzyl)-2,3,4,6-tetrahydropyrido[3,4-c][1,8]naphthyridine-5-(1H)-one]: at hClpP, the EC50 was in the range of 1000 to 10000 nM. For the same compound, the IC50 in the assay with MV4; 11 cells (Homo sapiens) is below 1000 nM.

With `O=c1c2c(c3cccnc3n1Cc1cccc(F)c1)CCN(Cc1ccccc1)C2` [Compound I-46, 3-benzyl-6-(3-fluorobenzyl)-2,3,4,6-tetrahydropyrido[3,4-c][1,8]naphthyridine-5-(1H)-one], the EC50 on hClpP is below 1000 nM. Also, the IC50 with MV4; 11 cells (Homo sapiens) is below 1000 nM.

`O=c1c2c(c3cccnc3n1CC1CCCC1)CCN(Cc1ccccc1)C2` [Compound I-38, 3-benzyl-6-(cyclopentylmethyl)-2,3,4,6-tetrahydropyrido[3,4-c][1,8]naphthyridine-5-(1H)-one]: the EC50 on hClpP fell in the range of 10000 to 100000 nM. Besides, the 50% inhibitory concentration (IC50) in the assay on MV4; 11 cells (Homo sapiens) is 1000 to 10000 nM.

Regarding `CCc1ccc(Cn2c(=O)c3c(c4cccnc42)CCN(Cc2cccc(C#N)c2)C3)cc1` [Compound I-94, 6-(4-ethylbenzyl)-3-(3-cyanobenzyl)-2,3,4,6-tetrahydropyrido[3,4-c][1,8]naphthyridine-5-(1H)-one], the EC50 at hClpP is below 1000 nM. Further, the IC50 with MV4; 11 cells (Homo sapiens) was below 1000 nM.

`Cc1cccc(CN2CCc3c(c(=O)n(Cc4ccc(Cl)cc4)c4nccn34)C2)c1` [Compound I-120, 7-(3-methylbenzyl)-4-(4-chlorobenzyl)-6,7,8,9-tetrahydroimidazo[1,2-a]pyrido[3,4-e]pyrimidine-5(4H)-one]: the EC50 at hClpP was below 1000 nM. In the assay on MV4; 11 cells (Homo sapiens), this compound registered an IC50 below 1000 nM.

On hClpP, `O=c1c2c(c3cccnc3n1Cc1ccc(F)cc1)CCN(Cc1cccc(F)c1)C2` [Compound I-71, 3-(3-fluorobenzyl)-6-(4-fluorobenzyl)-2,3,4,6-tetrahydropyrido[3,4-c][1,8]naphthyridine-5-(1H)-one] showed an EC50 below 1000 nM. The concentration for half-maximal inhibition (IC50) with MV4; 11 cells (Homo sapiens) was below 1000 nM.

Consider `O=c1c2c(c3cccnc3n1Cc1ccccc1)CCN(CC1CCC1)C2` [Compound I-2, 6-benzyl-3-(cyclobutylmethyl)-2,3,4,6-tetrahydropyrido[3,4-c][1,8]naphthyridine-5-(1H)-one], for which the EC50 on hClpP was 10000 to 100000 nM. Also, the IC50 in the assay with MV4; 11 cells (Homo sapiens) is 1000 to 10000 nM.

At hClpP, `CCc1ccc(CN2CCc3c(c(=O)n(Cc4ccccc4)c4ncccc34)C2)cc1` [Compound I-22, 6-benzyl-3-(4-ethylbenzyl)-2,3,4,6-tetrahydropyrido[3,4-c][1,8]naphthyridine-5-(1H)-one] came in with an EC50 of 1000 to 10000 nM. Further, the IC50 in the assay with MV4; 11 cells (Homo sapiens) is below 1000 nM.

At hClpP, `O=c1c2c(c3cccnc3n1Cc1ccccc1)CCN(CC1CCCCC1)C2` [Compound I-4, 6-benzyl-3-(cyclohexylmethyl)-2,3,4,6-tetrahydropyrido[3,4-c][1,8]naphthyridine-5-(1H)-one] had an EC50 of 10000 to 100000 nM. In addition, the IC50 with MV4; 11 cells (Homo sapiens) was below 1000 nM.

`Cc1cccc(CN2CCc3c(c(=O)n(Cc4ccc(F)cc4F)c4nccn34)C2)c1` [Compound I-125, 7-(3-methylbenzyl)-4-(2,4-difluorobenzyl)-6,7,8,9-tetrahydroimidazo[1,2-a]pyrido[3,4-e]pyrimidine-5(4H)-one] yielded an EC50 on hClpP below 1000 nM. In the assay on MV4; 11 cells (Homo sapiens), this compound gave an IC50 below 1000 nM.

In the case of `O=c1c2c(c3cccnc3n1Cc1ccccc1)CCN(Cc1ccc(Cl)cc1)C2` [Compound I-19, 6-benzyl-3-(4-chlorobenzyl)-2,3,4,6-tetrahydropyrido[3,4-c][1,8]naphthyridine-5-(1H)-one], on hClpP, the EC50 fell in the range of 1000 to 10000 nM. For the same compound, in the assay with MV4; 11 cells (Homo sapiens), the IC50 was below 1000 nM.

For the compound `O=c1c2c(n3ccnc3n1Cc1ccc(F)cc1)CCN(Cc1cccc(Cl)c1)C2` [Compound I-114, 7-(3-chlorobenzyl)-4-(4-fluorobenzyl)-6,7,8,9-tetrahydroimidazo[1,2-a]pyrido[3,4-e]pyrimidine-5(4H)-one], on hClpP, the EC50 was below 1000 nM. Further, the concentration for half-maximal inhibition (IC50) in the assay with MV4; 11 cells (Homo sapiens) was below 1000 nM.

On hClpP, `Cc1ccccc1CN1CCc2c(c(=O)n(Cc3ccccc3)c3ncccc23)C1` [Compound I-9, 6-benzyl-3-(2-methylbenzyl)-2,3,4,6-tetrahydropyrido[3,4-c][1,8]naphthyridine-5-(1H)-one] returned an EC50 of 1000 to 10000 nM. This compound returned an IC50 with MV4; 11 cells (Homo sapiens) below 1000 nM.

Compound `CCc1ccc(Cn2c(=O)c3c(n4ccnc24)CCN(Cc2cccc(F)c2)C3)cc1` [Compound I-138, 7-(3-fluorobenzyl)-4-(4-ethylbenzyl)-6,7,8,9-tetrahydroimidazo[1,2-a]pyrido[3,4-e]pyrimidine-5(4H)-one] displayed an EC50 at hClpP below 1000 nM. For the same compound, the IC50 in the assay with MV4; 11 cells (Homo sapiens) is below 1000 nM.

As for `O=c1c2c(c3cccnc3n1Cc1ccccn1)CCN(Cc1ccccc1)C2` [Compound I-61, 3-benzyl-6-(pyridin-2-ylmethyl)-2,3,4,6-tetrahydropyrido[3,4-c][1,8]naphthyridine-5-(1H)-one], the EC50 on hClpP was 10000 to 100000 nM. Also, the IC50 with MV4; 11 cells (Homo sapiens) is 1000 to 10000 nM.

`O=c1c2c(c3cccnc3n1Cc1ccccc1)CCN(Cc1ccccc1)C2` [Compound I-5, 3,6-dibenzyl-2,3,4,6-tetrahydropyrido[3,4-c][1,8]naphthyridine-5-(1H)-one]: on hClpP, the EC50 lay in the range of 1000 to 10000 nM. The IC50 with MV4; 11 cells (Homo sapiens) was below 1000 nM.

In turn, `O=c1c2c(c3ccccc3n1Cc1ccc(C(F)(F)F)cc1)CCN(Cc1ccccc1)C2` [Compound I-80, 3-benzyl-6-(4-(trifluoromethyl)benzyl)-2,3,4,6-tetrahydrobenzo[c][2,7]naphthyridine-5-(1H)-one] showed a 50% effective concentration (EC50) on hClpP below 1000 nM. This compound also had an IC50 in the assay on MV4; 11 cells (Homo sapiens) below 1000 nM.

The compound `O=c1c2c(c3cccnc3n1CC1CC1)CCN(Cc1ccccc1)C2` [Compound I-36, 3-benzyl-6-(cyclopropylmethyl)-2,3,4,6-tetrahydropyrido[3,4-c][1,8]naphthyridine-5-(1H)-one] came in with an EC50 on hClpP of 10000 to 100000 nM. Besides, the IC50 with MV4; 11 cells (Homo sapiens) fell in the range of 1000 to 10000 nM.

With `O=c1c2c(n3ccnc3n1Cc1ccc(F)cc1F)CCN(Cc1cccc(Cl)c1)C2` [Compound I-124, 7-(3-chlorobenzyl)-4-(2,4-difluorobenzyl)-6,7,8,9-tetrahydroimidazo[1,2-a]pyrido[3,4-e]pyrimidine-5(4H)-one], the EC50 on hClpP was below 1000 nM. Moreover, in the assay with MV4; 11 cells (Homo sapiens), the IC50 is below 1000 nM.

Regarding `O=c1c2c(c3cccnc3n1Cc1cc(Cl)ccn1)CCN(Cc1ccccc1)C2` [Compound I-64, 3-benzyl-6-((4-chloropyridin-2-yl)methyl)-2,3,4,6-tetrahydropyrido[3,4-c][1,8]naphthyridine-5-(1H)-one], on hClpP, the EC50 lay within 10000 to 100000 nM. This compound returned an IC50 in the assay on MV4; 11 cells of 1000 to 10000 nM.

On to `O=c1c2c(n3ncnc3n1Cc1ccc(Cl)cc1)CCN(Cc1cccc(Cl)c1)C2` [Compound I-154, 4-(4-chlorobenzyl)-7-(3-chlorobenzyl)-6,7,8,9-tetrahydropyrido[3,4-e][1,2,4]triazolo[1,5-a]pyrimidine-5(4H)-one], for which the EC50 on hClpP fell in the range of 1000 to 10000 nM. In addition, the IC50 in the assay on MV4; 11 cells (Homo sapiens) is 1000 to 10000 nM.

Consider `O=c1c2c(c3scnc3n1Cc1ccc(C(F)(F)F)cc1)CCN(Cc1ccccc1)C2` [Compound I-105, 7-benzyl-4-(4-trifluoromethylbenzyl)-6,7,8,9-tetrahydrothiazolo[4,5-C][2,7]naphthyridine-5(4H)-one], for which the EC50 on hClpP lay within 1000 to 10000 nM. Also, the IC50 in the assay on MV4; 11 cells (Homo sapiens) lay within 1000 to 10000 nM.

Consider `Cn1cnc(CN2CCc3c(c(=O)n(Cc4ccccc4)c4ncccc34)C2)c1` [Compound I-32, 6-benzyl-3-((1-methyl-1H-imidazol-4-yl)methyl)-2,3,4,6-tetrahydropyrido[3,4-c][1,8]naphthyridine-5-(1H)-one], for which the EC50 at hClpP was in the range of 10000 to 100000 nM. Also, in the assay with MV4; 11 cells (Homo sapiens), the IC50 was 1000 to 10000 nM.

Turning to `O=c1c2c(n3ccnc3n1Cc1ccc(C(F)(F)F)cc1)CCN(Cc1cccc(F)c1)C2` [Compound I-128, 7-(3-fluorobenzyl)-4-(4-trifluoromethylbenzyl)-6,7,8,9-tetrahydroimidazo[1,2-a]pyrido[3,4-e]pyrimidine-5(4H)-one], the EC50 at hClpP was below 1000 nM. Further, the IC50 in the assay on MV4; 11 cells (Homo sapiens) is below 1000 nM.

At hClpP, `COc1ccc(Cn2c(=O)c3c(n4ccnc24)CCN(Cc2cccc(C)c2)C3)cc1` [Compound I-145, 7-(3-methylbenzyl)-4-(4-methoxybenzyl)-6,7,8,9-tetrahydroimidazo[1,2-a]pyrido[3,4-e]pyrimidine-5(4H)-one] yielded an EC50 below 1000 nM. Moreover, in the assay with MV4; 11 cells (Homo sapiens), the IC50 was below 1000 nM.

On hClpP, `COc1ccccc1Cn1c(=O)c2c(c3cccnc31)CCN(Cc1ccccc1)C2` [Compound I-45, 3-benzyl-6-(2-methoxybenzyl)-2,3,4,6-tetrahydropyrido[3,4-c][1,8]naphthyridine-5-(1H)-one] gave an EC50 of 1000 to 10000 nM. In the assay on MV4; 11 cells (Homo sapiens), this compound showed an IC50 below 1000 nM.

Regarding `N#Cc1cccc(CN2CCc3c(c(=O)n(Cc4ccc(C(F)(F)F)cc4)c4cncn34)C2)c1` [Compound I-165, 7-(3-cyanobenzyl)-4-(4-trifluoromethylbenzyl)-6,7,8,9-tetrahydroimidazo[1,5-a]pyrido[3,4-e]pyrimidine-5(4H)-one], the EC50 on hClpP lay in the range of 1000 to 10000 nM. The IC50 with MV4; 11 cells (Homo sapiens) was 1000 to 10000 nM.

Consider `O=c1c2c(c3cccnc3n1Cc1cccnc1)CCN(Cc1ccccc1)C2` [Compound I-62, 3-benzyl-6-(pyridin-3-ylmethyl)-2,3,4,6-tetrahydropyrido[3,4-c][1,8]naphthyridine-5-(1H)-one], for which the EC50 on hClpP was in the range of 10000 to 100000 nM. Moreover, in the assay with MV4; 11 cells (Homo sapiens), the IC50 was in the range of 1000 to 10000 nM.

The values above are taken from patent US20240327408A1, “COMPOUNDS CONTAINING TETRAHYDRONAPHTHYRIDINONE OR TETRAHYDROPYRIDOPYRIMIDINONE SKELETON, PREPARATION METHOD THEREFOR AND PHARMACEUTICAL USE THEREOF” (CHINA PHARMACEUTICAL UNIVERSITY, priority 2021, published 2024).
